Experimental data taken from ChEMBL document CHEMBL5212743, “Selectivity Literature for EUbOPEN Chemogenomics Library wave 3” (2023).

Columns and labels:
D(3) dopamine receptor = D(3) dopamine receptor (Homo sapiens, UniProt P35462); test: Selectivity interaction (GPCR panel (PDSP screen)) EUB0000746a DRD3
[1] = biological target: Calcium/calmodulin-dependent protein kinase type 1B (Homo sapiens, UniProt Q6P2M8); test: Selectivity interaction (KinomeScan (DiscoverX)) EUB0000746a PNCK; details: at 1 µM
[2] = biological target: T1, Alpha-1D adrenergic receptor (Homo sapiens, UniProt P25100); test: Selectivity interaction (GPCR panel (PDSP screen)) EUB0000746a ADRA1D
T1 sequence (P25100 whole entry): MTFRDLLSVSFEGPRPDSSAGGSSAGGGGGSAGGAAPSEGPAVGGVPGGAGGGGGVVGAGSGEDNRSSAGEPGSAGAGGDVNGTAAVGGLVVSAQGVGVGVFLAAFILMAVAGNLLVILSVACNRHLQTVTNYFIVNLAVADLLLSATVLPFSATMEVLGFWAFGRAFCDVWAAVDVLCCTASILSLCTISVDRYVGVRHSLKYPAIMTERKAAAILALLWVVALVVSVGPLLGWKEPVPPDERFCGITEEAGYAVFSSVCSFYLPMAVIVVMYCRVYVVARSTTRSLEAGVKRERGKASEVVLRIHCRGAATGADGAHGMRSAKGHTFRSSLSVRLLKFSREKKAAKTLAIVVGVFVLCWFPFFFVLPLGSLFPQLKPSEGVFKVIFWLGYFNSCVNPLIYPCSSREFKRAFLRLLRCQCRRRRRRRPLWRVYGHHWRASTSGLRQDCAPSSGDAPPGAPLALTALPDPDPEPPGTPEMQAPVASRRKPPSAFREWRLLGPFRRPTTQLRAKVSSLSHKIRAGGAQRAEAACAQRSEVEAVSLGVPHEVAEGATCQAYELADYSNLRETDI

[3] = biological target: Phosphatidylinositol 4,5-bisphosphate 3-kinase catalytic subunit alpha isoform (Homo sapiens, UniProt P42336); test: Selectivity interaction (KinomeScan (DiscoverX)) EUB0000746a PIK3CA; details: at 1 µM
[4] = biological target: T2, Mitogen-activated protein kinase 12 (Homo sapiens) (UniProt P53778); test: Selectivity interaction (KinomeScan (DiscoverX)) EUB0000746a MAPK12; details: at 1 µM
T2 sequence (whole entry): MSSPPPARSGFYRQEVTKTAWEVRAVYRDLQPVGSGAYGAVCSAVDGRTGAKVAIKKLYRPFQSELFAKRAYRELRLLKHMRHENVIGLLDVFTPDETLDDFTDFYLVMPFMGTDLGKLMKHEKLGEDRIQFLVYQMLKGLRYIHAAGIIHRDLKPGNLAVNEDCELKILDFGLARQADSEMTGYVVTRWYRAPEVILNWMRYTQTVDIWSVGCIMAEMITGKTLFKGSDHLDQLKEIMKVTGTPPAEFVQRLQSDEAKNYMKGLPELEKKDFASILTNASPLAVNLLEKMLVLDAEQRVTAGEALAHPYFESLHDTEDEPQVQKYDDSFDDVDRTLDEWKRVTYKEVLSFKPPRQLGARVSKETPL

[5] = biological target: Serine/threonine-protein kinase PRP4 homolog (Homo sapiens) (UniProt Q13523); test: Selectivity interaction (KinomeScan (DiscoverX)) EUB0000264b PRPF4B; details: at 10 µM
[6] = biological target: T3, Myosin-IIIb (Homo sapiens) (UniProt Q8WXR4); test: Selectivity interaction (KinomeScan (DiscoverX)) EUB0000264b MYO3B; details: at 10 µM
T3 sequence (whole entry): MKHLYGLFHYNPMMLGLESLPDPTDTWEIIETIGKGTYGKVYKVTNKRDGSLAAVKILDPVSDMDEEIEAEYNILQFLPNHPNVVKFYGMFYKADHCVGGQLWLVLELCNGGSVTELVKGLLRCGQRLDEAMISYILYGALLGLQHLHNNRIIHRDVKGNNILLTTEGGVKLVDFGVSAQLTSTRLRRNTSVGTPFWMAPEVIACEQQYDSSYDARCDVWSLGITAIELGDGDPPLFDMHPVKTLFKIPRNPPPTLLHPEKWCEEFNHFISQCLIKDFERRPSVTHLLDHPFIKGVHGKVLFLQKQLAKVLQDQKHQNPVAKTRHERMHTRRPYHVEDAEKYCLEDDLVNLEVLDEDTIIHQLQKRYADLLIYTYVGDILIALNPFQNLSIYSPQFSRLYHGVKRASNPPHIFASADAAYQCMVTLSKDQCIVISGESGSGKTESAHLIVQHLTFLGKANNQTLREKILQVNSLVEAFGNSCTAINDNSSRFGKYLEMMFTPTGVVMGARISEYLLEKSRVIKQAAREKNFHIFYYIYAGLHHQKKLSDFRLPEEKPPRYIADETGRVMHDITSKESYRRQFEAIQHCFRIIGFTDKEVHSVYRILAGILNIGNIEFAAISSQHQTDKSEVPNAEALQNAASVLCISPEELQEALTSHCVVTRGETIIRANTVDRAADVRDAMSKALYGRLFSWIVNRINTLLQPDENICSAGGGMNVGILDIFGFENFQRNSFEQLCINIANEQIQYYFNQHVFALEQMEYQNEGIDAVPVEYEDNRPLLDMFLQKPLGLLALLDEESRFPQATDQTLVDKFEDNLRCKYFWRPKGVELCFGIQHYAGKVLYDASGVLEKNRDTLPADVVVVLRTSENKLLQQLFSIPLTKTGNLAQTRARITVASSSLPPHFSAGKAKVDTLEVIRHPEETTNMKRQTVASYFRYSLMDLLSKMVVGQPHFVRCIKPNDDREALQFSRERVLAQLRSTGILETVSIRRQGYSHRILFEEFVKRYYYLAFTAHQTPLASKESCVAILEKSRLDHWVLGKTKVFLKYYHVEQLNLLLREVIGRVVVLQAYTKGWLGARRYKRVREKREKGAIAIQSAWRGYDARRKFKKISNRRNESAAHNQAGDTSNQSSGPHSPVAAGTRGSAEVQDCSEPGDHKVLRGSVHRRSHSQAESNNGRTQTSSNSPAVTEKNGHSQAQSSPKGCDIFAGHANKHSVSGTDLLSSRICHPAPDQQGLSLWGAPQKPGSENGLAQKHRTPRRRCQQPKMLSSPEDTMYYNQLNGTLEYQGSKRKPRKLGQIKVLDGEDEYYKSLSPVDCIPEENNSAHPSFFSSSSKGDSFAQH

[7] = biological target: T4, Gamma-aminobutyric acid receptor subunit alpha-1 (Homo sapiens, UniProt P14867); test: Selectivity interaction (GPCR panel (PDSP screen)) EUB0000264b GABRA1
T4 sequence (P14867 whole entry): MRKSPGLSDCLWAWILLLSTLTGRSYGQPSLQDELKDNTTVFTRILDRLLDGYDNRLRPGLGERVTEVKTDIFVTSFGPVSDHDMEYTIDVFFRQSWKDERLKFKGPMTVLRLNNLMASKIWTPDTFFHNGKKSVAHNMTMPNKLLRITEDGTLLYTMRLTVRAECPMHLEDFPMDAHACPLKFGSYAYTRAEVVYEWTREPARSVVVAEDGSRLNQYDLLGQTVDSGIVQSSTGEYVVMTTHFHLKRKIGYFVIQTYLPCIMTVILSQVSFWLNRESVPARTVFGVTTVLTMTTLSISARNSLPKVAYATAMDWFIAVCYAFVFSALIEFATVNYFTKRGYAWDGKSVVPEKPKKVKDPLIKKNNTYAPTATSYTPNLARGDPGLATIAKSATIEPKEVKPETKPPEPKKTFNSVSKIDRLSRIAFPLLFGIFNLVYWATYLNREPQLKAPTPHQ

[8] = biological target: T5, Homeodomain-interacting protein kinase 4 (Homo sapiens) (UniProt Q8NE63); test: Selectivity interaction (KinomeScan (DiscoverX)) EUB0000544a HIPK4; details: at 1 µM
T5 sequence (whole entry): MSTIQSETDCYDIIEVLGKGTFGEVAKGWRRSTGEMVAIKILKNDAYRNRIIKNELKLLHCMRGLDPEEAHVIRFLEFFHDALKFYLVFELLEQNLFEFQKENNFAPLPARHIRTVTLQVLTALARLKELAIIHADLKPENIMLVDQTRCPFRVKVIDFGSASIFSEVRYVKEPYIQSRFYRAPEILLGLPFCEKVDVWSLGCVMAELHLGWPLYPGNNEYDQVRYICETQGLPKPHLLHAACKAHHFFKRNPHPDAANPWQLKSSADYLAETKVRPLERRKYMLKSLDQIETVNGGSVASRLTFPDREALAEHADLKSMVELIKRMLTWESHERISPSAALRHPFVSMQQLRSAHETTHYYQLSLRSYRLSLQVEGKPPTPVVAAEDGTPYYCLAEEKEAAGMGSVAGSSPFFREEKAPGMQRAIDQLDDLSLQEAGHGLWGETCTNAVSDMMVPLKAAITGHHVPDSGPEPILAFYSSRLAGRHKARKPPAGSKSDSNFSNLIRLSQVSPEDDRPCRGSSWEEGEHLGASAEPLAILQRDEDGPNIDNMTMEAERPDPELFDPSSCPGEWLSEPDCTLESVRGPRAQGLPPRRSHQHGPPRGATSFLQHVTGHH

[9] = biological target: T6, Alpha-2B adrenergic receptor (Homo sapiens) (UniProt P18089); test: Selectivity interaction (CEREP panel (Eurofins, enzymes and uptake assays)) EUB0000544a ADRA2B; details: at 10 µM
T6 sequence (whole entry): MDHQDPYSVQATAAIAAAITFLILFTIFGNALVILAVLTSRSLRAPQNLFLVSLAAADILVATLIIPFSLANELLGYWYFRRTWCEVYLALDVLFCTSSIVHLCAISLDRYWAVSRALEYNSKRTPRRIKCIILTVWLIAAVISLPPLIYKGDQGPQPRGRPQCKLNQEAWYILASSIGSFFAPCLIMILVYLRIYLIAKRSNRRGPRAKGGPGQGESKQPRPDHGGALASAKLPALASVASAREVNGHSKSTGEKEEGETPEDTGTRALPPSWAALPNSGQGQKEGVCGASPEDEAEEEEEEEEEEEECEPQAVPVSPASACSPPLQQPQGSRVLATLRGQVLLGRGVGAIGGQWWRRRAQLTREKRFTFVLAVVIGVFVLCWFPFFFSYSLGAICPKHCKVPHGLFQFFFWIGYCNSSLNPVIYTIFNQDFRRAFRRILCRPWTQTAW

[10] = biological target: T7, Adenosine receptor A3 (Homo sapiens) (UniProt P0DMS8); test: Selectivity interaction (CEREP panel (Eurofins, enzymes and uptake assays)) EUB0000544a ADORA3; details: at 10 µM
T7 sequence (whole entry): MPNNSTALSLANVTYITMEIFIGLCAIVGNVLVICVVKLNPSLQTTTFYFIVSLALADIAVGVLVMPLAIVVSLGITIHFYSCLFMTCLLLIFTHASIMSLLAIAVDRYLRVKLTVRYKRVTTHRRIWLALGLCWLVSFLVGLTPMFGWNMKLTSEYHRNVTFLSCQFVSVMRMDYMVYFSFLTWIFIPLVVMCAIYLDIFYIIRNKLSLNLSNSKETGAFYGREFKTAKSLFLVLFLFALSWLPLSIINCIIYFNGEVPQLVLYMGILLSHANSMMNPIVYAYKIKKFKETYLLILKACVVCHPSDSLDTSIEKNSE

[11] = biological target: Translocator protein (Homo sapiens) (UniProt P30536); test: Selectivity interaction (CEREP panel (Eurofins, binding assay)) EUB0000544a TSPO; details: at 10 µM
[12] = biological target: T7, Adenosine receptor A3 (Homo sapiens); test: Selectivity interaction (CEREP panel (Eurofins, binding assay)) EUB0000544a ADORA3; details: at 10 µM
[13] = biological target: T4, Gamma-aminobutyric acid receptor subunit alpha-1; test: Selectivity interaction (GPCR panel (PDSP screen)) EUB0000544a GABRA1
[14] = biological target: T6, Alpha-2B adrenergic receptor (Homo sapiens); test: Selectivity interaction (CEREP panel (Eurofins, binding assay)) EUB0000544a ADRA2B; details: at 10 µM

Serine/threonine-protein kinase PRP4 homolog (Homo sapiens), sequence (Q13523 whole entry): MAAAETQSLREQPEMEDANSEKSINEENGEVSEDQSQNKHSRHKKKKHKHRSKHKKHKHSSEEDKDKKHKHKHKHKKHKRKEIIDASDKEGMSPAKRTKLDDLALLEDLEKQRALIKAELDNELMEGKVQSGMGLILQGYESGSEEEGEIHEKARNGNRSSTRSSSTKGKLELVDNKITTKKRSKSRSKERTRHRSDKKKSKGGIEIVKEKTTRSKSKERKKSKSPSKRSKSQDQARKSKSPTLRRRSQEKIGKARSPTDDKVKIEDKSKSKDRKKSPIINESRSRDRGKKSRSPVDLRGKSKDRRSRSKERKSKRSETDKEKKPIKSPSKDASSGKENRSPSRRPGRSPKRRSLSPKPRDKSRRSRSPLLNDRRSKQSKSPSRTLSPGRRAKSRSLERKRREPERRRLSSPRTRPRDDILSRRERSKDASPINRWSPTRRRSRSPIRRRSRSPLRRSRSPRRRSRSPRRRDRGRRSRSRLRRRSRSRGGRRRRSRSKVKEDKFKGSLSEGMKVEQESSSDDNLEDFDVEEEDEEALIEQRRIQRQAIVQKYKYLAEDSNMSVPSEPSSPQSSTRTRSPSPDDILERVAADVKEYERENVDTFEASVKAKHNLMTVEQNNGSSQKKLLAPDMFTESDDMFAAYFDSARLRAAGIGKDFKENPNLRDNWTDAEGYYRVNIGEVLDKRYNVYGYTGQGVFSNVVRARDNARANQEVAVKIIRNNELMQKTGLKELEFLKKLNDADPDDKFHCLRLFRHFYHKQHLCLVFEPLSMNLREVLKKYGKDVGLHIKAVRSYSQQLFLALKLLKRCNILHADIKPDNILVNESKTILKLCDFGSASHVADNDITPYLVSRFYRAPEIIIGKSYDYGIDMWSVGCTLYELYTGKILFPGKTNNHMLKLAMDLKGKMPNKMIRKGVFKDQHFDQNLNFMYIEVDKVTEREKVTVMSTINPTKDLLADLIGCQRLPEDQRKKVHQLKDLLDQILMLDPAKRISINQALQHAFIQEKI
Translocator protein (Homo sapiens), sequence (P30536 whole entry): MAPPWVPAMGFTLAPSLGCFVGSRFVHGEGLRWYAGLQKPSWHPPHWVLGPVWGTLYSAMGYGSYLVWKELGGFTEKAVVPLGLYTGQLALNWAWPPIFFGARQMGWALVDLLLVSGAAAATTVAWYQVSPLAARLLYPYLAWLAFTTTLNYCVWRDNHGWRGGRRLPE
D(3) dopamine receptor, sequence (P35462 whole entry): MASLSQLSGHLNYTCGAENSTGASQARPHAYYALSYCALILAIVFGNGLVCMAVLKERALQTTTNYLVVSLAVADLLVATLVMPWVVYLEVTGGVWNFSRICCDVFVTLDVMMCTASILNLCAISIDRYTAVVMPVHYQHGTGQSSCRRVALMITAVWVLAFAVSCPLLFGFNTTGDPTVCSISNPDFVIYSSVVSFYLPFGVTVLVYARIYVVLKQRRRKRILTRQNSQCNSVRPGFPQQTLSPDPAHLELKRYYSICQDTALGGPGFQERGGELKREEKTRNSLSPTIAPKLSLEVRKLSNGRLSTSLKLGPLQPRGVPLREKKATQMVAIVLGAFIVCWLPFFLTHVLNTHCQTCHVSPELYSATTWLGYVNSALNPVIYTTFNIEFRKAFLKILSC
Phosphatidylinositol 4,5-bisphosphate 3-kinase catalytic subunit alpha isoform, sequence (P42336 whole entry, canonical isoform): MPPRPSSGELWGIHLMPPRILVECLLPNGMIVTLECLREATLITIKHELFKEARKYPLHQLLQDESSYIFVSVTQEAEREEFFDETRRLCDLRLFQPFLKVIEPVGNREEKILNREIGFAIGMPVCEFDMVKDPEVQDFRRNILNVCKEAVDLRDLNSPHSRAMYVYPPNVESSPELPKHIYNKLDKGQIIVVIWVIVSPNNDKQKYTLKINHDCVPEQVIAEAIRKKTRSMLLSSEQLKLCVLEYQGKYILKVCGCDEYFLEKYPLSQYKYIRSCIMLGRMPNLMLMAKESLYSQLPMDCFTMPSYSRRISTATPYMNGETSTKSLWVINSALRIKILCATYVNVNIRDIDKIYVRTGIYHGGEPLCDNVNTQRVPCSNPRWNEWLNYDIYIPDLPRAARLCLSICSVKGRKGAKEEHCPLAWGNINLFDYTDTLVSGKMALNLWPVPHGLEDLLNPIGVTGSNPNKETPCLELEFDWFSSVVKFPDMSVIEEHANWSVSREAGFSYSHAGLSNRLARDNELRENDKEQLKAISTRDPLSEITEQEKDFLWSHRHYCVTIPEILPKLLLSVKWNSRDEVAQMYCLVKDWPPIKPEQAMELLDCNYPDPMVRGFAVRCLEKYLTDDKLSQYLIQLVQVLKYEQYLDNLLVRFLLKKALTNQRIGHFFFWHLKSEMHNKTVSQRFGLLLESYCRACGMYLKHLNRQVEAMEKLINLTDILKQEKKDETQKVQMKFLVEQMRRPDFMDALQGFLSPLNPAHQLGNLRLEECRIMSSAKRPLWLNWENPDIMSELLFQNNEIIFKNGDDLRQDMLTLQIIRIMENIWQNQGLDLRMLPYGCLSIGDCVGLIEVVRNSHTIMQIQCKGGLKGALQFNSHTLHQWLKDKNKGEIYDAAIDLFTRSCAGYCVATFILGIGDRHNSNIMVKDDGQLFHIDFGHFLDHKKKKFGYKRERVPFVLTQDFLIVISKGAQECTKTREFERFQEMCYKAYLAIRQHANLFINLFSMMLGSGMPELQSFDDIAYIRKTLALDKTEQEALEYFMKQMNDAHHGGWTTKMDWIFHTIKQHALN
Calcium/calmodulin-dependent protein kinase type 1B, sequence (Q6P2M8 whole entry): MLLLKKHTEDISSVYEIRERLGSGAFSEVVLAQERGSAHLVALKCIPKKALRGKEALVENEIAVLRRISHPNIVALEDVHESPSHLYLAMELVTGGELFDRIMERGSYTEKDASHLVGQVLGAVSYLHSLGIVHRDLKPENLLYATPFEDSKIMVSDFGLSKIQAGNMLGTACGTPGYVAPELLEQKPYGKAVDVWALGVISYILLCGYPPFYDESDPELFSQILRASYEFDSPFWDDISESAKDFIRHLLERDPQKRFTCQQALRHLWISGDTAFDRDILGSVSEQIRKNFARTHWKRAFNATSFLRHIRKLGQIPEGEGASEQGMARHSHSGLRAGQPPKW

For `O=C(NS(=O)(=O)c1ccc(NCC2CCOCC2)c([N+](=O)[O-])c1)c1ccc(N2CCN(Cc3ccc(C(F)(F)F)cc3-c3ccc(Cl)cc3)CC2)cc1Oc1cnc2[nH]ccc2c1` [A-1210227], which Ki (D(3) dopamine receptor) is on record?
Its Ki is greater than 10000 nM.

What about the % of control [1] of the same compound?
Its % of control is 0%.

What about the Ki [2] of the same compound?
The Ki was greater than 10000 nM.

What about the % of control [3] of the same compound?
Its % of control is 50%.

And the % of control [4]?
The % of control was 50%.

`COc1ccc2c(c1)O[C@H](c1ccc(OC)c(OC)c1)C[C@@H]2NC(=O)C1(c2ccc3c(c2)OC(F)(F)O3)CC1` [A-1596584] was tested. Which % of control [5] did it give?
The % of control was 56%.

And the % of control [6]?
Its % of control is 39%.

What about the Ki [7] of the same compound?
The Ki was 218 nM.

For `COc1ccc2c(c1)O[C@@H](c1ccc(OC)c(OC)c1)C[C@H]2NC(=O)C1(c2ccc3c(c2)OC(F)(F)O3)CC1` [A-1596586], which % of control [8] is on record?
The % of control was 51%.

What about the % of inhibition [9] of the same compound?
The % of inhibition was 63.5%.

What about the % of inhibition [10] of the same compound?
Its % of inhibition is 63.9%.

And the % of inhibition [11]?
Its % of inhibition is 95.5%.

What about the % of inhibition [12] of the same compound?
The % of inhibition was 63.9%.

And the Ki [13]?
The Ki was 19.6 nM.

And the % of inhibition [14]?
Its % of inhibition is 63.5%.
